# Assay results as given in patent US9745265B2, “4-heteroaryl substituted benzoic acid compounds as RORgammaT inhibitors and uses thereof” (Merck Sharp & Dohme Corp., priority 2012, dated 2017).
# Target: human RORgammaT-Ligand Binding Domain (LBD) (Homo sapiens (Human), UniProt P51449)
# Experiment: RORγ-Ligand Binding Domain TR-FRET Assay (SRC1_2 co-activator peptide)
# Format: biochemical
# Conditions: not given
# Sequence of human RORgammaT-Ligand Binding Domain (LBD) (P51449 269-508): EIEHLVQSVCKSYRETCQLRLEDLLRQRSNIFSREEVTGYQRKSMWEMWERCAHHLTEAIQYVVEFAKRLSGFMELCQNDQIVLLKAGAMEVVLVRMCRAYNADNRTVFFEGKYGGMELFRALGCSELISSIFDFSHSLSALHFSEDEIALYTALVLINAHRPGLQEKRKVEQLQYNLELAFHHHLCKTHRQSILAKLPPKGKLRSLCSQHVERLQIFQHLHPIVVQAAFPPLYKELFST
row,Structure (SMILES),IC50 [nM]
1,"COCC(=O)n1nc(-c2ccc(C(=O)O)cc2F)c2ccccc21 [Example 1J, 3-fluoro-4-[1-(methoxy-acetyl)-1H-indazol-3-yl]benzoic acid]",5570
2,"O=C(O)c1ccc(-c2nn(C(=O)c3cccc4ccoc34)c3ccccc23)c(F)c1 [Example 1S, 4-[1-(1-benzofuran-7-ylcarbonyl)-1H-indazol-3-yl]-3-fluorobenzoic acid]",1480
3,"O=C(O)c1ccc(-c2nn(C(=O)c3c(Cl)cccc3OC3CC3)c3ccccc23)cc1 [Example 1H, 4-(1-(2-chloro-6-cyclypropoxybenzoyl)-1H-indazol-3-yl)benzoic acid]",39
4,"C[C@@H]1CN(C(=O)c2ccc3c(-c4ccc(C(=O)O)cc4F)nn(C(=O)c4c(Cl)cccc4C(F)(F)F)c3c2)C[C@H](C)O1 [Example 2B, 4-(1-(2-chloro-6-(trifluoromethyl)benzoyl)-6-((2S,6R)-2,6-dimethylmorpholine-4-carbonyl)-1H-indazol-3-yl)-3-fluorobenzoic acid]",15
5,"CC(C(=O)n1nc(-c2ccc(C(=O)O)cc2F)c2ccccc21)c1ccccc1 (stereo not drawn) [Example 1I, 3-fluoro-4-(1-(2-phenylpropanoyl)-1H-indazol-3-yl)benzoic acid]",4320
6,"CS(=O)(=O)Nc1cc(-c2nn(C(=O)c3c(Cl)cccc3C(F)(F)F)c3cccnc23)ccc1C(=O)O [Example 3B, 4-(1-(2-chloro-6-(trifluoromethyl)benzoyl)-1H-pyrazolo[4,3-b]pyridin-3-yl)-2-(methylsulfonamido)benzoic acid]",1650

# Same assay, conditions: HIS-tagged RORγ-LBD 3 nM, biotinylated SRC1 LXXLL peptide 100 nM, incubated overnight at 4° C., 665/615 nm ratio
row,Structure (SMILES),IC50 [nM]
1,"Cc1cc(N(C)C)cc(Cl)c1C(=O)n1nc(-c2ccc(C(=O)O)cc2F)c2ncccc21 [Example 42A, 4-(1-(2-chloro-4-(dimethylamino)-6-methylbenzoyl)-1H-pyrazolo[4,3-b]pyridin-3-yl)-3-fluorobenzoic acid]",2320
2,"Cc1cc(N2CCOCC2)cc(Cl)c1C(=O)n1nc(-c2ccc(C(=O)O)cc2F)c2ncccc21 [Example 40A, 4-(1-(2-chloro-6-methyl-4-morpholinobenzoyl)-1H-pyrazolo[4,3-b]pyridin-3-yl)-3-fluorobenzoic acid]",6870
3,"CC(C)(C)OC(=O)Nc1cnc2c(-c3ccc(C(=O)O)cc3F)nn(C(=O)c3c(Cl)cccc3C(F)(F)F)c2c1 [Example 29A, 4-(6-(tert-butoxycarbonylamino)-1-(2-chloro-6-(trifluoromethyl)benzoyl)-1H-pyrazolo[4,3-b]pyridin-3-yl)-3-fluorobenzoic acid]",191
4,"CN(c1ccc2c(-c3ccc(C(=O)O)cc3F)nn(C(=O)c3c(Cl)cccc3C(F)(F)F)c2c1)S(C)(=O)=O [Example 5G, 4-(1-(2-chloro-6-(trifluoromethyl)benzoyl)-6-(N-methylmethylsulfonamido)-1H-indazol-3-yl)-3-fluorobenzoic acid]",1500
5,"O=C1CCN(C(=O)c2ccc3c(-c4ccc(C(=O)O)cc4F)nn(C(=O)c4c(Cl)cccc4C(F)(F)F)c3c2)CC1 [Example 2C, 4-(1-(2-chloro-6-(trifluoromethyl)benzoyl)-6-(4-oxopiperidine-1-carbonyl)-1H-indazol-3-yl)-3-fluorobenzoic acid]",4
6,"CC(O)C#Cc1ccc2c(-c3ccc(C(=O)O)cc3F)nn(C(=O)c3c(Cl)cccc3C(F)(F)F)c2c1 (stereo not drawn) [Example 12A, 4-(1-(2-chloro-6-(trifluoromethyl)benzoyl)-6-(3-hydroxybut-1-ynyl)-1H-indazol-3-yl)-3-fluorobenzoic acid]",105
7,"CC(=O)Nc1cc(-c2nn(C(=O)c3c(Cl)cccc3C(F)(F)F)c3ccccc23)ccc1C(=O)O [Example 3A, 2-acetamido-4-(1-(2-chloro-6-(trifluoromethyl)benzoyl)-1H-indazol-3-yl)benzoic acid]",1470
8,"O=C(O)c1ccc(-c2nn(C(=O)c3c(Cl)cccc3C(F)(F)F)c3cc(N4CCOCC4)ccc23)cc1 [Example 4H, 4-(1-(2-chloro-6-(trifluoromethyl)benzoyl)-6-morpholino-1H-indazol-3-yl)benzoic acid]",4320
9,"CC(C)(C)OC(=O)Nc1cc2c(-c3ccc(C(=O)O)cc3F)cn(C(=O)c3c(Cl)cccc3C(F)(F)F)c2cn1 [Example 28A, 4-(5-(tert-butoxycarbonylamino)-1-(2-chloro-6-(trifluoromethyl)benzoyl)-1H-pyrrolo[2,3-c]pyridin-3-yl)-3-fluorobenzoic acid]",182
